Results on two compounds are retold here after patent US20060110474A1, “Rubrofusarin glycoside-containing composition” (Suntory Limited, priority 2002, published 2006).

“Also recorded” adds a separate entry of the source.

Format in all cases: cell-based
In data set [1] the test system is human hepatoma HepG2 cells. Description: Synergistic effect with precursor L-cystine on intracellular glutathione level (L-cystine free D-MEM). As to conditions: 40 hours, FIG. 4. The method, then:
(§1) The activity to increase intracellular glutathione level was determined by use of human hepatoma HepG2 cells. More specifically, HepG2 cells were cultured in RPMI1640 medium and added to a 96-well microplate at a density of 2.5×10^4 cells (100 μl) per well. After the HepG2 cells settled on the wall, 25 μl of each of the aforementioned samples was added and the mixture was cultured in a CO2 incubator for 48 hours. Thereafter, a culture solution was removed and the cells were washed once with phosphate buffered saline (PBS), 25 μl of a PBS solution containing 0.25 mM monochlorobimane was added and the mixture was allowed to stand in the CO2 incubator (37° C.) for 45 minutes. After the mixture was returned to room temperature, 75 μl of distilled water was added to the mixture to disperse it. The fluorescent intensity of the fluorescent substance produced by the reaction between Monochlorobimane and glutathione was measured at 355 nm/460 nm to observe a change in intracellular glutathione content.
Using human hepatoma HepG2 cells, the synergistic effect between rubrofusarin glycoside having the intracellular glutathione increasing activity and a precursor for synthesizing glutathione in vivo was investigated. […] Thereafter, intracellular glutathione levels were measured. […]

The subject of data set [2] is human hepatoma HepG2 cells. Description: Cytotoxicity seen in the in-vitro HepG2 cell evaluation system. The conditions noted are these: HepG2, 48 hours, up to 20 μM, compared with β-naphthoflavone. As for the experimental part:
Using human hepatoma HepG2 cells, time-dependent induction effect of rubrofusarin glycoside upon intracellular glutathione level was investigated. The procedure was similar to that of Example 1. Briefly, HepG2 cells were dispensed at a density of 2.5×10^4 cells (100 μl) per well of a microplate and allowed to settle thereto, and then, 25 μl of an evaluation sample diluted to a predetermined concentration in RPMI1640 medium was added. The cells were cultured for 0, 6, 12, 24, and 48 hours. As the evaluation sample, use was made of the concentrate (containing 10.2% (w/w) rubrofusarin gentiobioside) of the present invention prepared in accordance with the method shown in Example 4. […]
(§2) Using human hepatoma HepG2 cells, dose dependency of the effect of rubrofusarin glycoside upon intracellular glutathione level was investigated. […] After culturing for an additional 48 hours, the intracellular glutathione level was measured to be compared with that of the cells containing no test-compound or that of the cells containing comparative compound, β-naphthoflavone (purchased from Nacalai-tesque) or silibinin (purchased from Sigma Chemical). […]

The test system of data set [3] is human hepatoma HepG2 cells. Description: Protective effect against t-butyl hydroperoxide (rate of surviving cells, WST-1 staining). The conditions noted are these: HepG2, 10 μM in terms of rubrofusarin gentiobioside for 48 hours, then t-BHP 0 to 1 mM for 3 hours; β-naphthoflavone 6 μM; FIG. 3. The method, then:
The method was similar to that in Example 5. Briefly, HepG2 cells were dispensed at a density of 2.5×10^4 cells (100 μl) per well of a microplate and allowed to settle thereto, and then, 25 μl of the concentrate diluted in RPMI1640 medium to a final concentration of 10 μM in terms of rubrofusarin gentiobioside was added. After culturing was performed for a further 48 hours, a peroxide, t-butyl hydroperoxide (t-BHP) was added so as to give a final concentration of 0 to 1 mM. The rate of surviving cells after 3 hours relative to that of the cells containing no test compound was compared with those containing comparative compounds, β-naphthoflavone (6 μM) and silibinin (10 μM). The rate of surviving cells was checked by WST-1 staining and calculated based on a control not containing t-BHP as being 100%.
In general terms: Tetrazolium assays rely on reduction of a dye to a coloured formazan, in cell work by metabolically active cells.

Data set [4] relates to human hepatoma HepG2 cells. Nature of the data set: Intracellular glutathione level of HepG2 cells (monochlorobimane fluorescence). The method, then: as §1
Using human hepatoma HepG2 cells, time-dependent induction effect of rubrofusarin glycoside upon intracellular glutathione level was investigated. The procedure was similar to that of Example 1. Briefly, HepG2 cells were dispensed at a density of 2.5×10^4 cells (100 μl) per well of a microplate and allowed to settle thereto, and then, 25 μl of an evaluation sample diluted to a predetermined concentration in RPMI1640 medium was added. The cells were cultured for 0, 6, 12, 24, and 48 hours. […]
as §2

With `N[C@@H](CSSC[C@H](N)C(=O)O)C(=O)O` [L-cystine], the “intracellular glutathione level with L-cystine alone” value in data set [1] (L-cystine at predetermined concentrations) is recorded as “increased as the concentration of L-cystine added increased”.

In the case of `COc1cc(O[C@@H]2O[C@H](CO[C@@H]3O[C@H](CO)[C@@H](O)[C@H](O)[C@H]3O)[C@@H](O)[C@H](O)[C@H]2O)c2c(O)c3c(=O)cc(C)oc3cc2c1` [rubrofusarin glycoside, rubrofusarin 6-O-β-gentiobioside], the “intracellular glutathione level in co-existence of L-cystine” value in data set [1] (10 μM rubrofusarin glycoside plus L-cystine) is listed as “synergistically contribute to an increase; also recorded: acted synergistically”. In data set [2], the “cytotoxicity in a high-concentration range” value is given as “lower”. Moreover, in data set [3], the “protective effect against t-BHP (rate of surviving cells)” value is listed as “protecting HepG2 cells; also recorded: somewhat lower than that of β-naphthoflavone”. Besides, the “activity to increase intracellular glutathione level (HPLC fraction)” value in data set [4] (HepG2, 48 hours culture, serial two-fold dilution, 4 dilution stages) is “dose dependent and strong”. Moreover, the “glutathione increasing activity, dose dependency” value in data set [4] (HepG2, 48 hours, final concentration 0 to 20 μM in terms of rubrofusarin gentiobioside, FIG. 2) is recorded as “increases in a dose-dependent manner; also recorded: equivalent to that of β-naphthoflavone”. For the same compound, the “intracellular glutathione level, time course” value in data set [4] (HepG2, 0, 6, 12, 24, 48 hours, 1.25, 2.5, 5.0 μM in terms of rubrofusarin gentiobioside, relative to negative control = 100%, FIG. 1) is given as “increases in a time-dependent manner”.
